Tests used:
[1] = system: primary epithelial ovarian cancer (EOC) cells; experiment: Ex vivo drug sensitivity assay on primary cells from ovarian cancer patient ascites; assay type: cell-based, human; details: MTS 72 h
Procedure: FIG. 20A-C. The combination of cisplatin and mdivi-1 efficiently overcomes acquired cisplatin resistance in human ovarian cancer cells, including those from endstage cisplatin- and treatment-refractory patient. (A) The comparison of cisplatin sensitivity in ovarian cancer cells A2780 and their derivative cisplatin-resistant A2780cis cells (left panel). A2780cis cells were treated with cisplatin alone or in combination with mdivi-1 for 72 h (right panel). The survival was determined by MTS assay. (B and C) Ex vivo drug sensitivity assay using primary EOC cells isolated from ascites fluid of ovarian cancer patients (B, treatment-naïve; C, cisplatin-resistant). Apoptosis was measured by caspase-3/7 activity assay after 20 h exposure and the survival was measured by MTS assay after 72 h exposure. […]
Cell proliferation was determined using a CyQUANT Direct Cell Proliferation Assay kit (Invitrogen), the activity of caspase-3/7 was measured using a Caspase-Glo 3/7 Assay Systems (Promega, Madison, Wis.), and the MTS colorimetric survival assay was performed using the CellTiter 96 AQueous One Solution Cell Proliferation Assay kit (Promega, Madison, Wis.), according to the manufacturer's instructions. The survival fractions were calculated after setting untreated control cells at 100%. […] The cytotoxic interactions between the two drugs was determined using the method of Chou and Talalay. […]

MDA-MB-231 cells = experiment: Cisplatin cytotoxicity under Drp1 inhibition (subG1, LIVE/DEAD kit, caspase Western blot); assay type: cell-based, human
Procedure: To test the effect of Drp-1 inhibition on the effectiveness of cisplatin, in a first series of experiments, MDA-MB-231 cells were transfected with control or Drp1 siRNA, and 48 hours later were then treated with 40 μM of cisplatin for a 24 hour period. The effect of different concentrations of cisplatin on the Drp1 knockdown cells is shown in FIG. 13A, where the subG1 portion in the cell cycle profile indicates cytotoxicity. In a second series of experiments, a LIVE/DEAD Viability/Cytotoxicity kit (Invitrogen) was used to evaluate the effect of inhibition of Drp1 by mdivi-1 on cisplatin cytotoxicity. In this test, the percentage of lice and dead cells are determined simultaneously with two probes, calcein AM and ethidium homodimer (EthD-1). […] EthD-1 is excluded by the intact plasma membrane of live cells but is able to enter cells with damaged membranes and undergo a 40-fold enhancement of red fluorescence upon binding to nucleic acids. […] Calcein AM and EthD-1 were added to the cell suspension at final concentrations of 0.1 μM and 8 μM, respectively, Fluorescence intensity was analyzed on a CyAn ADP Analyzer (Beckman Coulter, Brea, Calif.) and the results were analyzed using Summit software. The live-cell population that was positively stained with calcein was detected in the bottom right region and indicated with an arrow. […]

Q: For `N.N.[Cl][Pt][Cl]` [cisplatin], which IC50 ([1]; EOC cells of a patient not treated with cisplatin (treatment-naïve)) is on record?
A: The IC50 was roughly 7.97 µM.

Q: What about the IC50 ([1]; EOC cells of a patient with clinically-defined cisplatin resistance) of the same compound?
A: The IC50 was roughly 11.6 µM.

Q: With `COc1cc(-n2c(=S)[nH]c3ccccc3c2=O)c(Cl)cc1Cl` [mdivi-1] as the compound, how does the “number of dead cells after cisplatin, coadministered with mdivi-1” value (MDA-MB-231 cells; 50 μM mdivi-1, 12 hours, LIVE/DEAD kit) read?
A: The value was “increased”.

Q: And the “number of apoptotic cells after cisplatin, coadministered with mdivi-1” value (MDA-MB-231 cells; caspase activation by Western Blot)?
A: Its value is “increased”.

— patent US9492450B2, “Inhibition of dynamin related protein 1 to promote cell death” (University of Pittsburgh—of the Commonwealth System of …, priority 2011, dated 2016)
